Measured values published in patent publication US12473305B2, “Pyrazole boronic acid compound, pharmaceutical composition containing same, and uses thereof” (BEIJING SONGRUN PHARMACEUTICAL TECHNOLOGY CO., LTD., priority 2020, dated 2025).
pIC50: −log10 of the molar value. Structures can show the parent of a compound that is named as a salt. Blank lines part the entries; values can stand above or below the compound they belong to.

How the values were obtained:
[1] = test system: non-small cell lung cancer cell line A549; assay: CellTiter-Glo tumor cell proliferation, A549; format: cell-based, human; settings: 72 h; for inhibition at 1 µM / inhibition at 10 µM: read-out: Inhibition rate A549 (%); for pIC50: CellTiter-Glo
Description: (§1) The effect of compounds on tumor cell proliferation was detected by CellTiter-Glo method. Human melanoma cell line A375, non-small cell lung cancer cell line A549, human lung adenocarcinoma cell line H1299, colorectal cancer cell line HCT116, liver cancer cell line HepG2 and gastric cancer cell line MGC80-3 were cultured in vitro. The cells were collected after growing to the logarithmic growth phase, centrifuged at 1000 rpm for 5 min, and suspended in an appropriate amount of medium after discarding the supernatant, and the cell concentration was adjusted to 2×10^4/mL. The cell suspension was inoculated onto the 384-well cell culture plate, with 50 μL per well. After being cultured in a cell incubator (37° C., 5% CO2) for 24 h, 5 μL of drug diluted by the cell culture medium was added into each well for the treatment group. Each drug was provided in triplicate. After 72 h incubation in the incubator, 20 μL of CellTiter-Glo was added into each well, and the relative luminescence unit (RLU) was measured with Multimode Microplate Reader Varioskan Flash (Thermo Scientific, USA) after placed at 37° C. for 20 min, and compared with the RLU of the control group. SigmaPlot 10.0 software was used to calculate the inhibition rate and IC50 value.

[2] = test system: colorectal cancer cell line HCT116; assay: CellTiter-Glo tumor cell proliferation, HCT116; format: cell-based, human; settings: 72 h; for inhibition at 1 µM / inhibition at 10 µM: read-out: Inhibition rate HCT116 (%); for pIC50: CellTiter-Glo
Description: as §1

[3] = test system: Human melanoma cell line A375; assay: CellTiter-Glo tumor cell proliferation, A375; format: cell-based; settings: 72 h; for inhibition at 1 µM / inhibition at 10 µM: read-out: Inhibition rate A375 (%); for pIC50: CellTiter-Glo
Description: as §1

[4] = test system: human multiple myeloma RPMI 8226; assay: Pharmacodynamic study, RPMI 8226 subcutaneous xenograft; format: in vivo, female NOD/SCID mice; settings: positive control 0.5 mg/kg, twice a week, tail vein, day of the last administration
Description: The anti-tumor effect in vivo was studied by using the tumor animal model obtained by subcutaneous xenotransplantation of cell lines into female NOD/SCID mice (purchased from Sipeifu Biotechnology Co., Ltd.).
RPMI 8226 cells were subcutaneously inoculated into NOD/SCID mice, and human multiple myeloma subcutaneously transplanted tumor model was successfully established 9 days after inoculating the cells. The test was divided into vehicle (0.3 mL DMSO, 0.27 mL Tween-80, 2.43 mL normal saline) control group, compound 30 low-dose group (20 mg/kg), compound 30 medium-dose group (30 mg/kg), compound 30 high-dose group (40 mg/kg), compound 39 low-dose group (5 mg/kg), compound 39 medium-dose group (10 mg/kg), and compound 39 high-dose group (15 mg/kg), and bortezomib (API purchased from Yangtze River Pharmaceutical) was used as the positive control group (0.5 mg/kg); 5 tumor-bearing mice established above in each group were administered by tail vein twice a week for nine times in total. The long diameter a (mm) of the tumor and the short diameter b (mm) of the tumor perpendicular to the long diameter were measured with digital electronic caliper twice a week. The calculation formula of tumor volume was: TV=ab^2/2; and the calculation formula of relative tumor volume was: RTV=Vt/Vo, Vo was the tumor volume measured when the mice in each group were divided into cages and administered for the first time (d1), and Vt was the tumor volume measured at the last administration. The animals were sacrificed 31 days (d22) after inoculation of RPMI 8226 cells, and weighed. The tumor mass was dissected and weighed, and the tumor inhibition rate was calculated according to the following formula: […]

SMILES: CC(C)C[C@H](NC(=O)Cn1nc(-c2ccccc2OS(=O)(=O)c2cccc(C(F)(F)F)c2)cc1-c1ccc(F)cc1)B(O)O [Compound 16, (R)-(1-(2-(5-(4-fluorophenyl)-3-(2-(((3-(trifluoromethyl)phenyl)sulfonyl)oxy)phenyl)-1H-pyrazol-1-yl)acetamido)-3-methylbutyl)boronic acid]
inhibition at 1 µM ([1]; Homo sapiens, A549): 1.6%
inhibition at 10 µM ([1]; Homo sapiens, A549): 36.9%
inhibition at 1 µM ([2]; Homo sapiens, HCT-116): 8.3%
inhibition at 10 µM ([2]; Homo sapiens, HCT-116): 93.8%
inhibition at 1 µM ([3]; Homo sapiens, A-375): 14.2%
inhibition at 10 µM ([3]; Homo sapiens, A-375): 91.9%

SMILES: Cc1ccc(-c2cc(-c3ccccc3OS(=O)(=O)c3cccc(C(F)(F)F)c3)nn2CC(=O)N[C@H](B(O)O)C(C)C)cc1 [Compound 20, (R)-(1-(2-(5-(4-methyl-phenyl)-3-(2-(((3-trifluoromethylphenyl)sulfonyl)oxy)phenyl)-1H-pyrazol-1-yl)acetamido)isobutyl)boronic acid]
inhibition at 1 µM ([1]; Homo sapiens, A549): 1.2%
inhibition at 10 µM ([1]; Homo sapiens, A549): 4.2%
inhibition at 1 µM ([2]; Homo sapiens, HCT-116): 9.2%
inhibition at 10 µM ([2]; Homo sapiens, HCT-116): 85.1%
inhibition at 1 µM ([3]; Homo sapiens, A-375): 11.5%
inhibition at 10 µM ([3]; Homo sapiens, A-375): 61.9%

SMILES: CC(C)C[C@H](NC(=O)[C@H](Cc1ccccc1)NC(=O)c1cnccn1)B(O)O [bortezomib, reference compound]
Relative tumor volume (x ± S) [4]: 5.17 ± 0.98
T/C (%) [4]: 55.41%
TGI (%) [4]: 44.59%
Tumor volume (x ± S) ([4]; in mm³ (unit assumed)): 359.97 ± 65.13

pIC50 ([1]; Homo sapiens, A549): 6.17
pIC50 ([2]; Homo sapiens, HCT-116): 6.52
pIC50 ([3]; Homo sapiens, A-375): 6.04
SMILES: CC(C)C[C@H](NC(=O)Cn1nc(-c2cccc(O)c2)cc1-c1ccccc1)B(O)O [Compound 27, (R)-(1-(2-(3-(3-hydroxyphenyl)-5-phenyl-1H-pyrazol-1-yl)acetamido)3-methylbutyl)boronic acid]

SMILES: CC(C)C[C@H](NC(=O)Cn1nc(-c2ccccc2OS(=O)(=O)c2cccc(C(F)(F)F)c2)cc1-c1ccc(S(C)(=O)=O)cc1)B(O)O [Compound 19, (R)-(1-(2-(5-(4-(methylsulfonyl)phenyl)-3-(2-(((3-(trifluoromethyl)phenyl)sulfonyl)oxy)phenyl)-1H-pyrazol-1-yl)acetamido)-3-methylbutyl)boronic acid]
inhibition at 1 µM ([1]; Homo sapiens, A549): 8.7%
inhibition at 10 µM ([1]; Homo sapiens, A549): 7.9%
inhibition at 1 µM ([2]; Homo sapiens, HCT-116): 14.5%
inhibition at 10 µM ([2]; Homo sapiens, HCT-116): 33.9%
inhibition at 1 µM ([3]; Homo sapiens, A-375): 4.1%
inhibition at 10 µM ([3]; Homo sapiens, A-375): 45.2%

SMILES: CC(C)C[C@H](NC(=O)Cn1nc(-c2ccccc2OS(=O)(=O)c2cccc(C(F)(F)F)c2)cc1-c1cccs1)B(O)O [Compound 25, (R)-(3-methyl-1-(2-(5-(thiophen-2-yl)-3-(2-(((3-(trifluoromethyl)phenyl)sulfonyl)oxy)phenyl)-1H-pyrazol-1-yl)acetamido)butyl)boronic acid]
inhibition at 1 µM ([1]; Homo sapiens, A549): 6.2%
inhibition at 10 µM ([1]; Homo sapiens, A549): 71.2%
inhibition at 1 µM ([2]; Homo sapiens, HCT-116): 5.3%
inhibition at 10 µM ([2]; Homo sapiens, HCT-116): 97.2%
inhibition at 1 µM ([3]; Homo sapiens, A-375): 10.3%
inhibition at 10 µM ([3]; Homo sapiens, A-375): 97.7%

pIC50 ([1]; Homo sapiens, A549): 5.66
pIC50 ([2]; Homo sapiens, HCT-116): 6.30
pIC50 ([3]; Homo sapiens, A-375): 6.16
SMILES: CC(C)C[C@H](NC(=O)Cn1nc(-c2cccc(OCCCN3CCOCC3)c2)cc1-c1ccccc1)B(O)O [Compound 31, (R)-(3-methyl-1-(2-(3-(3-(3-morpholinopropoxy)phenyl)-5-phenyl-1H-pyrazol-1-yl)acetamido)butyl)boronic acid hydrochloride]

SMILES: CC(C)C[C@H](NC(=O)Cn1nc(-c2ccccc2OS(=O)(=O)c2cccc(Br)c2)cc1-c1ccccc1)B(O)O [Compound 6, (R)-(1-(2-(3-(2-(((3-bromophenyl)sulfonyl)oxy)phenyl)-5-phenyl-1H-pyrazol-1-yl)-acetamido)-3-methylbutyl)boronic acid]
inhibition at 1 µM ([1]; Homo sapiens, A549): 13.3%
inhibition at 10 µM ([1]; Homo sapiens, A549): 64.7%
inhibition at 1 µM ([2]; Homo sapiens, HCT-116): 5.9%
inhibition at 10 µM ([2]; Homo sapiens, HCT-116): 97%
inhibition at 1 µM ([3]; Homo sapiens, A-375): 7%
inhibition at 10 µM ([3]; Homo sapiens, A-375): 95%

pIC50 [1]: 5.06
pIC50 [2]: 5.47
pIC50 [3]: 5.08
SMILES: CC(C)C[C@H](NC(=O)Cn1nc(-c2cccc(OS(=O)(=O)c3cccc(C(F)(F)F)c3)c2)cc1-c1ccccc1)B(O)O [Compound 28]

SMILES: CC(C)C[C@H](NC(=O)Cn1nc(-c2ccccc2OS(=O)(=O)c2cccs2)cc1-c1ccccc1)B(O)O [Compound 9, (R)-(3-methyl-1-(2-(5-phenyl-3-(2-((thiophen-2-ylsulfonyl)oxy)phenyl)-1H-pyrazol-1-yl)acetamido)butyl)boronic acid]
inhibition at 1 µM ([1]; Homo sapiens, A549): 3.6%
inhibition at 10 µM ([1]; Homo sapiens, A549): 83.2%
inhibition at 1 µM ([2]; Homo sapiens, HCT-116): 2.9%
inhibition at 10 µM ([2]; Homo sapiens, HCT-116): 98.3%
inhibition at 1 µM ([3]; Homo sapiens, A-375): 4.6%
inhibition at 10 µM ([3]; Homo sapiens, A-375): 98.3%

SMILES: CC(C)C[C@H](NC(=O)Cn1nc(-c2ccccc2OS(=O)(=O)c2cccc(C(F)(F)F)c2)cc1-c1cccc(Br)c1)B(O)O [Compound 14, (R)-(1-(2-(5-(3-bromophenyl)-3-(2-(((3-(trifluoromethyl)phenyl)sulfonyl)oxy)phenyl)-1H-pyrazol-1-yl)acetamido)-3-methylbutyl)boronic acid]
inhibition at 1 µM ([1]; Homo sapiens, A549): 10.8%
inhibition at 10 µM ([1]; Homo sapiens, A549): 8%
inhibition at 1 µM ([2]; Homo sapiens, HCT-116): 9.9%
inhibition at 10 µM ([2]; Homo sapiens, HCT-116): 9.2%
inhibition at 1 µM ([3]; Homo sapiens, A-375): 16.5%
inhibition at 10 µM ([3]; Homo sapiens, A-375): 50.4%

pIC50 [1]: 5.51
pIC50 [2]: 5.85
pIC50 [3]: 5.59
SMILES: Cc1cc(-c2cccc(NS(=O)(=O)c3cccc(C(F)(F)F)c3)c2)nn1CC(=O)N[C@@H](CC(C)C)B(O)O [Compound 26]

SMILES: CC(C)C[C@H](NC(=O)Cn1nc(-c2ccccc2OS(=O)(=O)c2cccc(C(F)(F)F)c2)cc1-c1ccc(Br)cc1)B(O)O [Compound 13, (R)-(1-(2-(5-(4-bromophenyl)-3-(2-(((3-(trifluoromethyl)phenyl)sulfonyl)oxy)phenyl)-1H-pyrazol-1-yl)acetamido)-3-methylbutyl)boronic acid]
inhibition at 1 µM ([1]; Homo sapiens, A549): 4.5%
inhibition at 10 µM ([1]; Homo sapiens, A549): 10.4%
inhibition at 1 µM ([2]; Homo sapiens, HCT-116): 8.2%
inhibition at 10 µM ([2]; Homo sapiens, HCT-116): 3.3%
inhibition at 1 µM ([3]; Homo sapiens, A-375): 8.1%
inhibition at 10 µM ([3]; Homo sapiens, A-375): 41.3%

SMILES: CC(C)C[C@H](NC(=O)Cn1nc(-c2ccccc2OS(=O)(=O)c2cccc(C(F)(F)F)c2)cc1-c1ccc(-c2ccccc2)cc1)B(O)O [Compound 22, (R)-(1-(2-(5-([1,1′-biphenyl]-4-yl)-3-(2-(((3-(trifluoromethyl)phenyl)sulfonyl)oxy)phenyl)-1H-pyrazol-1-yl)acetamido)-3-methylbutyl)boronic acid]
inhibition at 1 µM ([1]; Homo sapiens, A549): 3.7%
inhibition at 10 µM ([1]; Homo sapiens, A549): 16.1%
inhibition at 1 µM ([2]; Homo sapiens, HCT-116): 3.9%
inhibition at 10 µM ([2]; Homo sapiens, HCT-116): 18.1%
inhibition at 1 µM ([3]; Homo sapiens, A-375): 10.9%
inhibition at 10 µM ([3]; Homo sapiens, A-375): 39.1%

pIC50 ([1]; Homo sapiens, A549): 5.97
pIC50 ([2]; Homo sapiens, HCT-116): 6.15
pIC50 ([3]; Homo sapiens, A-375): 5.59
SMILES: CC(C)C[C@H](NC(=O)Cn1nc(-c2cccc(OS(=O)(=O)c3cccc(C(F)(F)F)c3)c2)cc1-c1ccccc1)B(O)O [Compound 11, (R)-(3-methyl-1-(2-(5-phenyl-3-(3-(((3-(trifluoromethyl)phenyl)sulfonyl)oxy)phenyl)-1H-pyrazol-1-yl)acetamido)butyl)boronic acid]
inhibition at 1 µM ([1]; Homo sapiens, A549): 63.4%
inhibition at 10 µM ([1]; Homo sapiens, A549): 90.3%
inhibition at 1 µM ([2]; Homo sapiens, HCT-116): 95.4%
inhibition at 10 µM ([2]; Homo sapiens, HCT-116): 98.4%
inhibition at 1 µM ([3]; Homo sapiens, A-375): 90.2%
inhibition at 10 µM ([3]; Homo sapiens, A-375): 98.8%

SMILES: CC(C)C[C@H](NC(=O)Cn1nc(-c2ccccc2OS(=O)(=O)c2cccc(F)c2)cc1-c1ccccc1)B(O)O [Compound 4, (R)-(1-(2-(3-(2-(((3-fluorophenyl)sulfonyl)oxy)phenyl)-5-phenyl-1H-pyrazol-1-yl)-acetamido)-3-methylbutyl)boronic acid]
inhibition at 1 µM ([1]; Homo sapiens, A549): 15%
inhibition at 10 µM ([1]; Homo sapiens, A549): 69.3%
inhibition at 1 µM ([2]; Homo sapiens, HCT-116): 6.2%
inhibition at 10 µM ([2]; Homo sapiens, HCT-116): 97.6%
inhibition at 1 µM ([3]; Homo sapiens, A-375): 5.6%
inhibition at 10 µM ([3]; Homo sapiens, A-375): 98.2%
